From US20100055218A1, “NOVEL COMPOSITIONS” (priority 2006, published 2010)

Columns and labels:
[1] = test system: RAW267.7; test: Inhibition of nitric oxide production in LPS-activated macrophages (nitrite, Griess reaction); format: cell-based, murine; details: Mus musculus, Macrophage; for IC50: read-out: IC50 Nitric Oxide
Procedure: (§1) The anti-inflammatory effects of rosehip and ligustilide, hydroxytyrosol, magnolol, and genistein were evaluated in activated macrophages by determining the inhibition of the synthesis of nitric oxide and/or proinflammatory prostaglandins (PG). PGE2 plays a critical role in the inflammation process, while nitric oxide (NO) is a hallmark of inflammation in various chronic inflammatory diseases including various forms of arthritis, gastro-intestinal diseases and metabolic syndrome.
(§2) Biologically standardized rosehip powder was obtained from Hyben Vital International, Langeland, Denmark, and dissolved in DMSO. Ligustilide and genistein was synthesized by DSM Nutritional Products. Hydroxytyrosol was from Cayman Chemicals or synthesized by DSM Nutritional Products. Magnolol was obtained from Apin Chemicals Ltd, UK. According to the suppliers' data sheet all products were >90% pure and obtained in powder form. […] The anti-inflammatory effects of compounds was tested in cellular assays using a murine macrophage indicator cell line, RAW267.7, which was purchased from American Type Culture Collection, (ATCC) and cultured in DMEM according to the protocol provided by ATCC. Cells (˜50'000/well) were seeded into flat-bottomed microtiter plates and cultured for one day. Cells were then starved in complete medium containing 0.25% fetal calf serum (FCS) (D-025). After overnight culture, medium was removed and replaced by 100 μL of D-025 containing the test compounds at twice the final concentration. Subsequently, 100 μL of D-025 containing 2 μg/ml lipopolysaccharide (LPS) was added (i.e. final LPS concentration of 1 μg/ml) and the cells were cultured for 24 hours. Substances were usually tested in a concentration range from 0.2 to 50 μM in two-fold dilution steps. In the case of rosehip extract, the concentration range was from 3-2000 μg/ml. Concentrations of nitrite which was generated from nitric oxide released by cells were determined by the Griess reaction (see e.g Imai et al. Biochem Biophys Res Comm, 197, 105 [1993]) using sodium nitrite as standard. Briefly, 50 μl of supernatant was mixed with Griess reagent 1 (25 μL) and Griess reagent 2 (25 μL), centrifuged and the optical density at 540 nm determined. PGE2 secreted into the cell culture medium was determined by EIA obtained from Cayman Chemicals (Ann Harbor, Wis., USA) and used according to the manufacturer's instructions. IC50 values were calculated using a […] least-square fitting equation [y=A+((B−A)/(1+((C−x)̂D))] for best-fit curves (Excel fit software program).

[2] = test system: RAW267.7; test: Inhibition of PGE2 production in LPS-activated macrophages (EIA); format: cell-based, murine; details: Mus musculus, Macrophage; for IC50: read-out: IC50 PGE2
Procedure: as §1, §2

[3] = 6.25 μmol/L, read-out: % inhibition of NO production
[4] = single substance, LPS 1 μg/ml, 24 hours

IC50 [1, 4]	IC50 [2, 4]	Compound	inhibition at 6.25 µM [1, 3]	inhibition at 12.5 µM ([1]; 12.5 μmol/L, read-out: % inhibition of NO production)	IC50 ([1]; 24 h)	inhibition at 6.25 µM ([1]; read-out: % inhibition of NO production)	IC50 ([2]; 24 h)	inhibition at 6.25 µM ([2]; read-out: % inhibition of PGE2 production)	inhibition at 25 µM ([1]; 25 μmol/L, read-out: % inhibition of NO production)
15 ± 1 µM	10 ± 2 µM	CCC/C=C1\OC(=O)C2=C1CCC=C2 [Ligustilide, ligustilide]	5%						
28 ± 2 µM	24 ± 3 µM	OCCc1ccc(O)c(O)c1 [OH-Tyrosol, 3,4 dihydroxyphenylethanol]	-5%	9%					
		C=CCc1ccc(O)c(-c2cc(CC=C)ccc2O)c1 [Magnolol, 5,5′-Diallyl-2,2′-biphenyldiol]			10 ± 2 µM	2%	2 ± 1 µM	57%	
37 ± 2 µM	5 ± 1 µM	O=c1c(-c2ccc(O)cc2)coc2cc(O)cc(O)c12 [Genistein, 4′,5,7-trihydroxyisoflavone]							24%
